The source made the active and inactive calls. Unless noted, the calls are words filed in the database; no cut-off is given here.
Experiments:
[1] = P. falciparum blood-stage growth inhibition, dose response, NF54 strain, plate reader, dry powder (AID 651889); assay type: functional, cell-based
[2] = T. cruzi intracellular amastigote growth inhibition, dose response, imaging, CA-I/72 strain, bovine embryo skeletal muscle, dry powder (AID 651885); assay type: functional, cell-based
[3] = L. donovani amastigote growth inhibition, dose response, axenic amastigotes, plate reader, dry powder (AID 651892); assay type: functional, cell-based
[4] = T. b. rhodesiense proliferation inhibition, dose response, STIB900 strain, plate reader, cherry pick (AID 651893); assay type: functional, cell-based; conditions: Trypanosoma brucei
[5] = growth inhibition of intracellular T. cruzi, dose response, cell-based, plate reader, dry powder samples (AID 651845); assay type: functional
[6] = T. cruzi growth inhibition in host cells, dose response, cell-based, plate reader, dry powder, set 2 (AID 652275); assay type: functional
[7] = L. donovani amastigote growth inhibition, dose response, axenic amastigotes, plate reader, cherry pick (AID 651891); assay type: functional, cell-based; conditions: Leishmania donovani
[8] = L-6 rat myoblast cytotoxicity, dose response, counter-screen for T. cruzi inhibitor project, cell-based, plate reader, dry powder (AID 651895); assay type: functional
[9] = cytotoxicity in L-6 rat myocytes, dose response, cytotoxicity control, cell-based, plate reader, cherry-pick (AID 651896); assay type: functional
[10] = T. cruzi amastigote growth inhibition, dose response, Tulahuen strain, L-6 host cells, dry powder (AID 651890); assay type: functional, cell-based
[11] = intracellular Trypanosoma cruzi inhibitors in host cells – cell-based, plate reader, cherry-pick samples, set 3, dose response (AID 651818); assay type: functional;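 further: compounds incubated with infected cells for about four days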
[12] = T. b. rhodesiense proliferation inhibition, dose response, STIB900 strain, plate reader, dry powder (AID 651894); assay type: functional, cell-based
[13] = molecular target: G-protein coupled receptor 183 (Homo sapiens, UniProt P32249); assay: SAR confirmation of small molecule antagonists of the EBI2 receptor via a luminescent beta-arrestin assa.; assay type: functional
Chain of G-protein coupled receptor 183 (P32249 whole entry): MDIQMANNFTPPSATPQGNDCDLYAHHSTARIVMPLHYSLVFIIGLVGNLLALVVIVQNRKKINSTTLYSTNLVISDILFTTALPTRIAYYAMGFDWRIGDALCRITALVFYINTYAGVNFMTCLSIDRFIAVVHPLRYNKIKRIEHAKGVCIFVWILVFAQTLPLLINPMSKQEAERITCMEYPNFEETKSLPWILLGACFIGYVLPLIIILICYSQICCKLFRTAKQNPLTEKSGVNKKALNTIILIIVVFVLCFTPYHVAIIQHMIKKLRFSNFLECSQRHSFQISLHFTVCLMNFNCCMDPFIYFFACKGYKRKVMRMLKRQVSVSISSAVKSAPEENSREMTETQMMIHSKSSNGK

Phospholipase D1 = molecular target: T1, Phospholipase D1 (Homo sapiens, UniProt Q13393); assay: PLD1 Cellular Concentration Response Study.; assay type: functional
T1 sequence (Q13393 whole entry): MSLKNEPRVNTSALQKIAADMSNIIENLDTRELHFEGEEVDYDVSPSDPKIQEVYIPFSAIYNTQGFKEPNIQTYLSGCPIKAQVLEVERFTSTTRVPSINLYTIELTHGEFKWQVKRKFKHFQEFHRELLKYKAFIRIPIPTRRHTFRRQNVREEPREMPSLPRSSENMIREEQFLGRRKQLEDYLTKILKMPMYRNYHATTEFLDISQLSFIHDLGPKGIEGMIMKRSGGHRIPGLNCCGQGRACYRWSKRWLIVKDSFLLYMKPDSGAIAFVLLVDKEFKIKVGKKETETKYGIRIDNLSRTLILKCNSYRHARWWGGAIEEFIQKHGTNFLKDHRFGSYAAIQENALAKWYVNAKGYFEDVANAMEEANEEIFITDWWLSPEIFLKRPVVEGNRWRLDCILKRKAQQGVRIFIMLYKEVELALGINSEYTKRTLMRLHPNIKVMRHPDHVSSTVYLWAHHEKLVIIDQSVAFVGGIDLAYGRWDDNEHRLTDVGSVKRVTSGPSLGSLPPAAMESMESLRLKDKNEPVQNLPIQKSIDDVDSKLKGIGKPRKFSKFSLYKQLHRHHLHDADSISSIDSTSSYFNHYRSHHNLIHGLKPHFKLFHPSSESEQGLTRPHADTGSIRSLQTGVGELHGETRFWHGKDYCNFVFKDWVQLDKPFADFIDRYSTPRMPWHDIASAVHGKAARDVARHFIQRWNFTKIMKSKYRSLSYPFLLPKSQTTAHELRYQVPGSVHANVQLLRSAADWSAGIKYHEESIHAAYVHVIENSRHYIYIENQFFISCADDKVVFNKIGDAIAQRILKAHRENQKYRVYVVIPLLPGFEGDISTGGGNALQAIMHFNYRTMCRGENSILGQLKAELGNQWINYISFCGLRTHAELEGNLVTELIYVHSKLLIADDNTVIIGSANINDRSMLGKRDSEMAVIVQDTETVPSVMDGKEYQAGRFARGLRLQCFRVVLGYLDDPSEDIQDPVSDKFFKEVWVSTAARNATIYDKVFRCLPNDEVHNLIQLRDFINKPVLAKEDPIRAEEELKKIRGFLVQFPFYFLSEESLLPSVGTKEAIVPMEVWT

Phospholipase D2 = Phospholipase D2 (Homo sapiens, UniProt O14939); assay: PLD2 Cellular Concentration Response Study.; assay type: functional
Chain of Phospholipase D2 (O14939 whole entry): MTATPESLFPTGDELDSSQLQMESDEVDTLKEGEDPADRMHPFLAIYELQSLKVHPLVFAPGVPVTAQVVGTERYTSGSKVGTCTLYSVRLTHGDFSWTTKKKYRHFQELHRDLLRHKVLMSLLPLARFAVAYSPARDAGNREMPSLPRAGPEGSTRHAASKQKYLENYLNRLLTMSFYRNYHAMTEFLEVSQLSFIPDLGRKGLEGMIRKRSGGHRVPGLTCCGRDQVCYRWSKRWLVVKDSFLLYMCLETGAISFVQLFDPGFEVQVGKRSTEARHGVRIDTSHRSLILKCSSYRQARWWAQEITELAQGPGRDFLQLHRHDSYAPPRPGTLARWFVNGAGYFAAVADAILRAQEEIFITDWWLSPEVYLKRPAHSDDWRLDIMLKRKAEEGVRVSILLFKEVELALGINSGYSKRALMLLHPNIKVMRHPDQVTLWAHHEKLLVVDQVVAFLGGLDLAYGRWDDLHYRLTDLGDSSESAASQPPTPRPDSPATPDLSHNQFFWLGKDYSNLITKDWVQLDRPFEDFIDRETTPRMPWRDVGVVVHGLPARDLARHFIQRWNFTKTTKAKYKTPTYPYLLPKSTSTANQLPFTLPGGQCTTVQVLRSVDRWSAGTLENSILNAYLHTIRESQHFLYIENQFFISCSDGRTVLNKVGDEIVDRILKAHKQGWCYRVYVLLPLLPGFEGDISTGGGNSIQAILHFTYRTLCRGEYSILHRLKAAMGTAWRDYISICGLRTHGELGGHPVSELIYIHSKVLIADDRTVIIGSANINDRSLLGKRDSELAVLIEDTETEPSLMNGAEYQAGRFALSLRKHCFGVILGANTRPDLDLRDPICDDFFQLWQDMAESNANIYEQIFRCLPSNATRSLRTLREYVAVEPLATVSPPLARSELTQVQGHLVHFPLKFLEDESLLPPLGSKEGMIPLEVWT

[14] = Glucagon-like peptide 1 release potency, NCI-H716 cell line, dose-response, half-maximal inhibitory concentration (AID 1117344); assay type: functional, cell-based
[15] = Dose-response inhibition of insulin secretion in a rat insulinoma line at 5 mM glucose (AID 1117331); assay type: functional, cell-based; conditions: INS-1E
[16] = half-maximal inhibitory concentration for glucagon-like peptide-1 release, STC-1 cell line, dose-response (AID 1117345); assay type: functional, cell-based

**Q.** For C[C@H](CO)N1C[C@H](C)[C@H](CN(C)Cc2ccc(Oc3ccccc3)cc2)Oc2c(NC(=O)c3ccncc3)cccc2C1=O, which IC50 [1] is on record?
**A.** 2.32 µM (inactive)

**Q.** And the IC50 [2]?
**A.** 9.8 nM (active)

**Q.** What about the IC50 [3] of the same compound?
**A.** > 100 µM (inactive)

**Q.** What about the IC50 [4] of the same compound?
**A.** 18.5 µM (inactive)

**Q.** What about the AC50 [5] of the same compound?
**A.** 15.8 nM (active)

**Q.** What about the AC50 [6] of the same compound?
**A.** 1.27 nM (active)

**Q.** What about the IC50 [7] of the same compound?
**A.** > 100 µM (inactive)

**Q.** And the IC50 [8]?
**A.** 54.7 µM (inactive)

**Q.** And the IC50 [9]?
**A.** 52.2 µM (active)

**Q.** What about the IC50 [10] of the same compound?
**A.** 75.5 nM (active)

**Q.** What about the AC50 [11] of the same compound?
**A.** 75 nM (active)

**Q.** And the IC50 [12]?
**A.** 22.2 µM (inactive)

**Q.** With O=C(/C=C/c1ccc(Cl)c(Cl)c1)N1CCN(C(=O)c2ccc(Cl)cc2)CC1 as the compound, how does the IC50 [13] read?
**A.** 1.17 nM (active)

**Q.** What does the source list for O=C(NCCN1CCC2(CC1)C(=O)NCN2Cc1cccnc1)c1ccc(Cl)c(Cl)c1?
**A.** IC50 (Phospholipase D1): 20 µM (active); IC50 (Phospholipase D2): 1.24 µM (active)

**Q.** With NC(=O)C1(N2CCCCC2)CCN(CCCN2c3ccccc3CCc3ccc(Cl)cc32)CC1 [CLOCAPRAMINE] as the compound, how does the IC50 [14] read?
**A.** 18.3 µM (inactive)

**Q.** What about the IC50 [15] of the same compound?
**A.** 10.1 µM (inactive)

**Q.** What about the IC50 [16] of the same compound?
**A.** > 40 µM (inactive)

Reference: ChEMBL document CHEMBL1201862, “PubChem BioAssay data set” (2004)
